Source: ChEMBL document CHEMBL4376867 (J Med Chem, 2020)

Tests used:
[1] = target: CDK9/cyclin T1 (Homo sapiens, UniProt P50750); experiment: Inhibition of recombinant full length human His-tagged CDK9/CyclinT1 expressed in baculovirus expression system using biotin-labelled Ttds-YISPLKSPYKISEG peptide as substrate preincubated with enzyme for 15 mins followed by substrate addition and further incubated for 25 mins presence of 10 uM of ATP by TR-FRET assay
[2] = Apparent permeability of compound across apical to basal membrane in human Caco2 cells at 2 uM in DMSO after 2 hrs by LC-MS/MS analysis; assay type: ADME, cell-based; settings: Caco-2
[3] = target: T1, Serine/threonine-protein kinase ULK1 (Homo sapiens, UniProt O75385); experiment: Inhibition of wild-type human partial length ULK1 (M1 to T309 residues) expressed in mammalian expression system
T1 sequence (O75385 whole entry): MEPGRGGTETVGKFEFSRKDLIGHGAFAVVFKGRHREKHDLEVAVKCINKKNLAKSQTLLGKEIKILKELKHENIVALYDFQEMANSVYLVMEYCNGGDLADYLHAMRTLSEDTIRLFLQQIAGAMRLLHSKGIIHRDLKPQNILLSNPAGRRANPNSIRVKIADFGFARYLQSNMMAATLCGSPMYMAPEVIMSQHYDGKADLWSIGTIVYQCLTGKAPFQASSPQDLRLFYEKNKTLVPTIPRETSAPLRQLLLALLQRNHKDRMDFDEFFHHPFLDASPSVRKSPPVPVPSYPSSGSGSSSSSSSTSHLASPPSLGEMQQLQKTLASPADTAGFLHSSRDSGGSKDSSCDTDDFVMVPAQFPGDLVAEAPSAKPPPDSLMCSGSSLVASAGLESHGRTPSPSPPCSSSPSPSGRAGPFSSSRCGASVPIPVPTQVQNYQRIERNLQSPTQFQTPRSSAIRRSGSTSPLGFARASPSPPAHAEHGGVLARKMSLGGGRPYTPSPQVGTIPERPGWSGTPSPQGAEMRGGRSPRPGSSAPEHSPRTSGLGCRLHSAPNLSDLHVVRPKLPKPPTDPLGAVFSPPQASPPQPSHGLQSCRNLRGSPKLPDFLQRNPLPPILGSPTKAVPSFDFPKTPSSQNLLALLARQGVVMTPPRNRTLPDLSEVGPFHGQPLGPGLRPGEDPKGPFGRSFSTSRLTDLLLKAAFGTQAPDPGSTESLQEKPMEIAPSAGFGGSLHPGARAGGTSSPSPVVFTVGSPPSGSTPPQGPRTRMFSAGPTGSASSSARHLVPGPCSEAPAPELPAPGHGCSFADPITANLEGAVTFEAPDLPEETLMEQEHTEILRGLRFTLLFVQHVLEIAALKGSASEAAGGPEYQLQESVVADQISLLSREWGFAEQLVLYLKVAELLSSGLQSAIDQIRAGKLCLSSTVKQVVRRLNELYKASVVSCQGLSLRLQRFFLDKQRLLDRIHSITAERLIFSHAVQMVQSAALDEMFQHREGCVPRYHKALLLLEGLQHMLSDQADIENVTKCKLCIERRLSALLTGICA

[4] = target: T2, IKK epsilon/TBK1 (Homo sapiens, UniProt Q14164+Q9UHD2); experiment: Inhibition of IKKepsilon/TBK1 in human MDB-MB-231 cells transduced with lentiviral vector expressing human IRF3 assessed as decrease in poly(I:C)-stimulated IRF3 phosphorylation at S385/386 residues preincubated for 1 hr followed by poly(I:C) addition and measured after 1 hr; assay type: cell-based
T2 sequence (Q14164 whole entry): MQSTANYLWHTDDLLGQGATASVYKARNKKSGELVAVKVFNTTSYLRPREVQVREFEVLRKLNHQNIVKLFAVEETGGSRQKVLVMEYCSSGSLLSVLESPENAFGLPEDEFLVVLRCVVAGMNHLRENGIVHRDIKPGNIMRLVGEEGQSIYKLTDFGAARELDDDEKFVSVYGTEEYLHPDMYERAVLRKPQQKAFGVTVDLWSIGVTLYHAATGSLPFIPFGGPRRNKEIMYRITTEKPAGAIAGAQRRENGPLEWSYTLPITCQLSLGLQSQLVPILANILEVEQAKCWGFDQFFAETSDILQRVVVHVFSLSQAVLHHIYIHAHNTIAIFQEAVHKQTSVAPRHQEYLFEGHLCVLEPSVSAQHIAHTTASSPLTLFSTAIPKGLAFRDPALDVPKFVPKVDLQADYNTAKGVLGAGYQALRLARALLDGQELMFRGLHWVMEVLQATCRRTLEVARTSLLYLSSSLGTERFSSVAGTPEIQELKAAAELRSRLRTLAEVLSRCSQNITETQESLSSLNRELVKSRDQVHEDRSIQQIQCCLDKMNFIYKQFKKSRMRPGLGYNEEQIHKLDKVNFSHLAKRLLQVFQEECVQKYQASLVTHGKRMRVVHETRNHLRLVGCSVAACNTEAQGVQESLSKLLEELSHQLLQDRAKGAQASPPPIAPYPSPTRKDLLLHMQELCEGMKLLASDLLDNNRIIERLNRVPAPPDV
T2 sequence (Q9UHD2 whole entry): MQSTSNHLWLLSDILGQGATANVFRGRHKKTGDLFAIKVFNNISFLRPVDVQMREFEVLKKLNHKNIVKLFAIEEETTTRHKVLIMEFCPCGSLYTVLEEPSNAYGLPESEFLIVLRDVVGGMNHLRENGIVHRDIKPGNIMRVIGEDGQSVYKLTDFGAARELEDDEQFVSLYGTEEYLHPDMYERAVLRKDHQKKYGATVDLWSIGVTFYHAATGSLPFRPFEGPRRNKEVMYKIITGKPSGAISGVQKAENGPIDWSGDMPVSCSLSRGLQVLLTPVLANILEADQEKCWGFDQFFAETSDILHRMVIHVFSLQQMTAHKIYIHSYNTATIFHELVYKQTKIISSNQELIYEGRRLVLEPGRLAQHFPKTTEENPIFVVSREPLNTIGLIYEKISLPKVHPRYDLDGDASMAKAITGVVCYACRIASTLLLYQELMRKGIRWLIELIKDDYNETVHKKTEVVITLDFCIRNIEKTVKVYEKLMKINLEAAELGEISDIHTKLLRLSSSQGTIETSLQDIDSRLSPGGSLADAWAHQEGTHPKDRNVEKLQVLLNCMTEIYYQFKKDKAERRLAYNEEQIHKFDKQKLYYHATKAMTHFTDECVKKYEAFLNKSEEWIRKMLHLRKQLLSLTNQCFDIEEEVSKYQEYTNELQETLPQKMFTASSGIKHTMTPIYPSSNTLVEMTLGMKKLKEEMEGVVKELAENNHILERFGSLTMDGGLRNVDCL

[5] = test system: ACHN; experiment: Antiproliferative activity against human ACHN cells harboring CDKN2A mutation assessed as reduction in cell viability after 96 hrs by CellTiter-Glo luminescence assay; assay type: functional, cell-based
[6] = target: T3, Serine/threonine-protein kinase TBK1 (Homo sapiens, UniProt Q9UHD2); experiment: Inhibition of recombinant full length human N-terminal His-tagged TBK1 using biotin-labelled Ahx-GDEDFSSFAEPG peptide as substrate preincubated with enzyme for 15 mins followed by substrate addition and further incubated for 30 mins in presence of 1 mM of ATP by TR-FRET assay
T3 sequence (Q9UHD2 whole entry): T2 sequence (Q9UHD2 whole entry)

Sequence of CDK9/cyclin T1 (O60563 whole entry): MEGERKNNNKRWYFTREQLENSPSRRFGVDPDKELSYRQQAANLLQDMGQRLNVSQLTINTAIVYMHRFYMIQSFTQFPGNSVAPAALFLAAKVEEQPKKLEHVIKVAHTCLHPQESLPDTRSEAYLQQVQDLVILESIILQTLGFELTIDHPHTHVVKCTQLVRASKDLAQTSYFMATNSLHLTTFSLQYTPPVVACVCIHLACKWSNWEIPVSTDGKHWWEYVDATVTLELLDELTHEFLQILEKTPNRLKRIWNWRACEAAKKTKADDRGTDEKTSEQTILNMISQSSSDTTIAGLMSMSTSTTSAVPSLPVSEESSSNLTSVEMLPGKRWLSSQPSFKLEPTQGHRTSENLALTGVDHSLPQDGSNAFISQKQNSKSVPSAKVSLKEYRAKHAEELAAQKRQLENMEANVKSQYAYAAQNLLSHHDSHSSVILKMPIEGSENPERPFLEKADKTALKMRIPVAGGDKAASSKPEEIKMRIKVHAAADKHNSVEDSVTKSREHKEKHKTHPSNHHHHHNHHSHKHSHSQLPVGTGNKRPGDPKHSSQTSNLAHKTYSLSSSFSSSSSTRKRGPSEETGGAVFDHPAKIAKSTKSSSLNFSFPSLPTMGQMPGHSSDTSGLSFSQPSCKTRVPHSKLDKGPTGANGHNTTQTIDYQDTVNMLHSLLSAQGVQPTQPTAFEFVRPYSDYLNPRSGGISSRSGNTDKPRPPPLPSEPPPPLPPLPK
Sequence of CDK9/cyclin T1 (P50750 whole entry): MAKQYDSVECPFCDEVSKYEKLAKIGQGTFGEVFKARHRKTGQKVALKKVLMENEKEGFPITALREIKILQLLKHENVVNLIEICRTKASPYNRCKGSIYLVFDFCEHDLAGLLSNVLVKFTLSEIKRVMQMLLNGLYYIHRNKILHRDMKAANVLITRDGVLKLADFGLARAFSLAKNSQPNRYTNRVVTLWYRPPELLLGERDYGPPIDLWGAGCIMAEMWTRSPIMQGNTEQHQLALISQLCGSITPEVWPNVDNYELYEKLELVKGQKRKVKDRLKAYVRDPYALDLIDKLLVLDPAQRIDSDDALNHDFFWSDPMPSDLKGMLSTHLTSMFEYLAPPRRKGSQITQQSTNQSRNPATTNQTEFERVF

C[C@H](c1ccnc(Nc2nc3ccc(-c4cnn(CC5CC5)c4)cc3[nH]2)c1)N1CCN(C(=O)CC(F)(F)F)CC1
IC50 [1]: > 20 µM
Papp A→B at 2 h, 2 µM [2]: 1.6 ×10⁻⁶ cm/s
IC50 [3]: 9 nM
IC50 [4]: 131 nM
IC50 [5]: 5.27 µM
IC50 [6]: 18 nM

CN(C)c1cc(-c2ccc3nc(Nc4cc(CN5CCN(C(=O)CC(F)(F)F)CC5)ccn4)[nH]c3c2)ncn1
IC50 [1]: 14.4 µM
IC50 [3]: > 10000 nM
IC50 [4]: 213 nM
IC50 [5]: 9.69 µM
IC50 [6]: 167 nM

C[C@H](c1ccnc(Nc2nc3ccc(-c4cc(OCC5CC5)ncn4)cc3[nH]2)c1)N1CCN(C(=O)CC(F)(F)F)CC1
IC50 [1]: 16.1 µM
IC50 [3]: 416 nM
IC50 [4]: 66 nM
IC50 [5]: 3.87 µM
IC50 [6]: 5 nM

O=C(CC(F)(F)F)N1CCN(Cc2ccnc(Nc3nc4ccc(-c5cnn(CC6CC6)c5)cc4[nH]3)c2)CC1
IC50 [1]: 9.19 µM
Papp A→B at 2 h, 2 µM [2]: 3.2 ×10⁻⁶ cm/s
IC50 [3]: 28 nM
IC50 [4]: 368 nM
IC50 [5]: 7.9 µM
IC50 [6]: 137 nM

Cc1cc(-c2ccc3nc(Nc4cc([C@@H](C)N5CCN(C(=O)CC(F)(F)F)CC5)ccn4)[nH]c3c2)ncn1
IC50 [1]: 2.13 µM
IC50 [3]: 980 nM
IC50 [4]: 140 nM
IC50 [5]: 2.01 µM
IC50 [6]: 17 nM

CC(C)Oc1cncnc1-c1ccc2nc(Nc3cc([C@@H](C)N4CCN(C(=O)CC(F)(F)F)CC4)ccn3)[nH]c2c1
IC50 [1]: 0.824 µM
IC50 [3]: 263 nM
IC50 [4]: 119 nM
IC50 [5]: 7.96 µM
IC50 [6]: 50 nM

Cc1noc(-c2ccc3nc(Nc4cc(CN5CCN(C(=O)CC(F)(F)F)CC5)ccn4)[nH]c3c2)n1
IC50 [1]: 0.455 µM
Papp A→B at 2 h, 2 µM [2]: 4.2 ×10⁻⁶ cm/s
IC50 [4]: 2750 nM
IC50 [5]: 9.67 µM
IC50 [6]: 2270 nM

Cc1noc(-c2ccc3nc(Nc4cc([C@@H](C)N5CCN(C(=O)CC(F)(F)F)CC5)ccn4)[nH]c3c2)n1
IC50 [1]: 1.52 µM
Papp A→B at 2 h, 2 µM [2]: 10.8 ×10⁻⁶ cm/s
IC50 [4]: 1210 nM
IC50 [5]: 8.98 µM
IC50 [6]: 372 nM

COCc1cc(-c2ccc3nc(Nc4cc([C@@H](C)N5CCN(C(=O)CC(F)(F)F)CC5)ccn4)[nH]c3c2)ncn1
IC50 [1]: 5.11 µM
Papp A→B at 2 h, 2 µM [2]: 1.4 ×10⁻⁶ cm/s
IC50 [3]: 368 nM
IC50 [5]: 13.4 µM

CNc1cc(-c2ccc3nc(Nc4cc(CN5CCN(C(=O)CC(F)(F)F)CC5)ccn4)[nH]c3c2)ncn1
IC50 [3]: 1640 nM
IC50 [4]: 1990 nM
IC50 [5]: 29.8 µM
IC50 [6]: 155 nM

C[C@H](c1ccnc(Nc2nc3ccc(-c4cc(N(C)C)ncn4)cc3[nH]2)c1)N1CCN(C(=O)CC(F)(F)F)CC1 [BAY-985]
Papp A→B at 2 h, 2 µM [2]: 0.89 to 0.9 ×10⁻⁶ cm/s
IC50 [3]: 7930 nM
IC50 [4]: 74 nM
IC50 [5]: 7.26 µM
IC50 [6]: 30 nM
